For this test, the target named is T1, Monoamineoxidase B type human-derived enzyme (Homo sapiens, UniProt P27338).
T1 sequence (P27338 1-520): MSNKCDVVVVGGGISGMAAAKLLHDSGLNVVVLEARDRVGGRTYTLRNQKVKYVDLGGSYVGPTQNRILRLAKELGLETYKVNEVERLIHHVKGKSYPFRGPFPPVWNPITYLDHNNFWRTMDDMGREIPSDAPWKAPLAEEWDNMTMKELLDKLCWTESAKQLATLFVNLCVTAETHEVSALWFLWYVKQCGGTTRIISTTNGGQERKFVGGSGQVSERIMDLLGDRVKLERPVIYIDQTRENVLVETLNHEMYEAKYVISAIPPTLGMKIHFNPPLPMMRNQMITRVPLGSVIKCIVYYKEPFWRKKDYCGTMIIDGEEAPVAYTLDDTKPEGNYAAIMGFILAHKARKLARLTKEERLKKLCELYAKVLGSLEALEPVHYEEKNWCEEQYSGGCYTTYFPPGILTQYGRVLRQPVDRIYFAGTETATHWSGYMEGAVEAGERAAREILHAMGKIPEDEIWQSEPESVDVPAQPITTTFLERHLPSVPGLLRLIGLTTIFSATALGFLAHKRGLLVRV
The test can be described thus: Inhibitory effects on the activity of MAO-B (Amplex Red fluorescence, benzylamine substrate). Type of test: biochemical. Conditions: treatment concentration 10 nM; read-out: Inhibitory effects (%) on the activity of MAO-B. How it is done: Monoamineoxidase A or B type human-derived enzyme (5 mg/ml) was each diluted with 0.05 M sodium phosphate buffer (pH 7.4) to yield a dilution of 1:200, and then 100 μl of an enzyme buffer containing 2 μl of a compound 1 solution at the corresponding concentration was placed in a test plate (flat-bottom) and incubated for 30 minutes.
100 μl of a working buffer containing 400 μM of Amplex Red reagent, 2 U/ml horseradish peroxidase, and 2 mM substrate (tyramine for MAO-A and benzylamine for MAO-B) in 0.05 M sodium phosphate buffer (pH 7.4) was mixed with a pre-incubated enzyme buffer at 1:1 and measured using fluorescence (EX: 563 nm & EM: 587 nm) for 30 minutes.
For `NC(=O)OCc1cc(-c2ccc(NCc3cccc(F)c3)cc2)no1` [Example 77, Carbamic acid 3-[4-(3-fluoro-benzylamino)-phenyl]-isoxazol-5-ylmethyl ester], the inhibition at 0.01 µM amounted to 77.1%.

On to `NC(=O)OCc1cc(-c2ccc(NCc3ccccc3F)cc2)no1` [Example 78, Carbamic acid 3-[4-(2-fluoro-benzylamino)-phenyl]-isoxazol-5-ylmethyl ester], for which the inhibition at 0.01 µM came to 84.7%.

With `NC(=O)OCc1cc(-c2ccc(NCc3cccc(F)c3F)cc2)no1` [Example 80, Carbamic acid 3-[4-(2,3-difluoro-benzylamino)-phenyl]-isoxazol-5-ylmethyl ester], the inhibition at 0.01 µM amounted to 74.5%.

`NC(=O)OCc1cc(-c2ccc(NCc3cc(F)cc(F)c3)cc2)no1` [Example 82, Carbamic acid 3-[4-(3,5-difluoro-benzylamino)-phenyl]-isoxazol-5-ylmethyl ester]: the inhibition at 0.01 µM stood at 56.5%.

For the molecule `NC(=O)OCc1cc(-c2ccc(NCc3cc(F)ccc3F)cc2)no1` [Example 83, Carbamic acid 3-[4-(2,5-difluoro-benzylamino)-phenyl]-isoxazol-5-ylmethyl ester], the inhibition at 0.01 µM is 54.9%.

As for `NC(=O)OCc1cc(-c2ccc(NCc3ccc(Cl)cc3)cc2)no1` [Example 85, Carbamic acid 3-[4-(4-chloro-benzylamino)-phenyl]-isoxazol-5-ylmethyl ester], the inhibition at 0.01 µM was determined as 50.1%.

As to `NC(=O)OCc1cc(-c2ccc(NCc3ccccc3Cl)cc2)no1` [Example 86, Carbamic acid 3-[4-(2-chloro-benzylamino)-phenyl]-isoxazol-5-ylmethyl ester], the inhibition at 0.01 µM is 83.3%.

Turning to `NC(=O)OCc1cc(-c2ccc(NCc3cccc(Cl)c3)cc2)no1` [Example 87, Carbamic acid 3-[4-(3-chloro-benzylamino)-phenyl]-isoxazol-5-ylmethyl ester], the inhibition at 0.01 µM was found to be 78.6%.

In the case of `NC(=O)OCc1cc(-c2ccc(NCc3cccc(Cl)c3Cl)cc2)no1` [Example 88, carbamic acid 3-[4-(2,3-dichloro-benzylamino)-phenyl]-isoxazol-5-ylmethyl ester], the inhibition at 0.01 µM worked out at 60%.

Consider `NC(=O)OCc1cc(-c2ccc(NCc3ccc(Cl)cc3Cl)cc2)no1` [Example 89, carbamic acid 3-[4-(2,4-dichloro-benzylamino)-phenyl]-isoxazol-5-ylmethyl ester], for which the inhibition at 0.01 µM is 54.7%.

For `NC(=O)OCc1cc(-c2ccc(NCc3cc(Cl)ccc3Cl)cc2)no1` [Example 90, carbamic acid 3-[4-(2,5-dichloro-benzylamino)-phenyl]-isoxazol-5-ylmethyl ester], the inhibition at 0.01 µM was found to be 20.3%.

On to `NC(=O)OCc1cc(-c2ccc(NCc3c(Cl)cccc3Cl)cc2)no1` [Example 91, carbamic acid 3-[4-(2,6-dichloro-benzylamino)-phenyl]-isoxazol-5-ylmethyl ester], for which the inhibition at 0.01 µM turned out to be 73.1%.

Consider `NC(=O)OCc1cc(-c2ccc(NCc3ccc(Cl)c(Cl)c3)cc2)no1` [Example 92, carbamic acid 3-[4-(3,4-dichloro-benzylamino)-phenyl]-isoxazol-5-ylmethyl ester], for which the inhibition at 0.01 µM worked out at 75.2%.

Take `NC(=O)OCc1cc(-c2ccc(NCc3cc(Cl)cc(Cl)c3)cc2)no1` [Example 93, carbamic acid 3-[4-(3,5-dichloro-benzylamino)-phenyl]-isoxazol-5-ylmethyl ester]: the inhibition at 0.01 µM worked out at 24.1%.

As for `NC(=O)OCc1cc(-c2ccc(NCc3c(Cl)ccc(Cl)c3Cl)cc2)no1` [Example 95, carbamic acid 3-[4-(2,3,6-trichloro-benzylamino)-phenyl]-isoxazol-5-ylmethyl ester], the inhibition at 0.01 µM amounted to 24.3%.

Turning to `NC(=O)OCc1cc(-c2ccc(NCc3cccc(C(F)(F)F)c3)cc2)no1` [Example 96, Carbamic acid 3-[4-(3-trifluoromethyl-benzylamino)-phenyl]-isoxazol-5-ylmethyl ester], the inhibition at 0.01 µM was found to be 40.9%.

With `Cc1ccccc1CNc1ccc(-c2cc(COC(N)=O)on2)cc1` [Example 99, Carbamic acid 3-[4-(2-methyl-benzylamino)-phenyl]-isoxazol-5-ylmethyl ester], the inhibition at 0.01 µM was 79.7%.

As for `Cc1ccc(CNc2ccc(-c3cc(COC(N)=O)on3)cc2)cc1` [Example 100, Carbamic acid 3-[4-(4-methyl-benzylamino)-phenyl]-isoxazol-5-ylmethyl ester], the inhibition at 0.01 µM was determined as 23.7%.

For `Cc1ccc(CNc2ccc(-c3cc(COC(N)=O)on3)cc2)c(C)c1` [Example 103, Carbamic acid 3-[4-(2,4-dimethyl-benzylamino)-phenyl]-isoxazol-5-ylmethyl ester], the inhibition at 0.01 µM worked out at 20.7%.

`COc1cccc(CNc2ccc(-c3cc(COC(N)=O)on3)cc2)c1` [Example 105, Carbamic acid 3-[4-(3-methoxy-benzylamino)-phenyl]-isoxazol-5-ylmethyl ester]: the inhibition at 0.01 µM worked out at 53.7%.

With `Cc1noc(C)c1CNc1ccc(-c2cc(COC(N)=O)on2)cc1` [Example 112, carbamic acid 3-{4-[(3,5-dimethyl-isoxazol-4-ylmethyl)-amino]-phenyl}-isoxazol-5-ylmethyl ester], the inhibition at 0.01 µM turned out to be 26%.

As for `CC(OC(N)=O)c1cc(-c2ccc(OCc3ccccc3)cc2)no1` (stereo not drawn) [Example 117, carbamic acid 1-[3-(4-benzyloxy-phenyl)-isoxazol-5-yl]-ethyl ester], the inhibition at 0.01 µM turned out to be 68.5%.

In the case of `NC(=O)OCCc1cc(-c2ccc(OCc3ccccc3)cc2)no1` [Example 118, carbamic acid 2-[3-(4-benzyloxy-phenyl)-isoxazol-5-yl]-ethyl ester], the inhibition at 0.01 µM worked out at 25.7%.

As to `C#CCNCc1cc(-c2ccc(OCc3ccccc3)cc2)no1` [Example 119, [3-(4-benzyloxy-phenyl)-isoxazol-5-ylmethyl]-prop-2-ynyl-amine], the inhibition at 0.01 µM was 81.7%.

Take `O=C(OCc1cc(-c2ccc(OCc3ccccc3)cc2)no1)N1CCCC1` [Example 125, pyrrolidine-1-carboxylic acid 3-(4-benzyloxy-phenyl)-isoxazol-5-ylmethyl ester]: the inhibition at 0.01 µM was 65.8%.

In the case of `O=C(OCc1cc(-c2ccc(OCc3ccccc3)cc2)no1)N1CCCCC1` [Example 126, piperidine-1-carboxylic acid 3-(4-benzyloxy-phenyl)-isoxazol-5-ylmethyl ester], the inhibition at 0.01 µM turned out to be 48.7%.

Turning to `CN(C)NC(=O)OCc1cc(-c2ccc(OCc3ccccc3)cc2)no1` [Example 129, N′,N′-dimethyl-hydrazinecarboxylic acid 3-(4-benzyloxy-phenyl)-isoxazol-5-ylmethyl ester], the inhibition at 0.01 µM stood at 22%.

On to `OC1CCN(Cc2cc(-c3ccc(OCc4ccccc4)cc3)no2)CC1` [Example 137, 1-[3-(4-benzyloxy-phenyl)-isoxazol-5-ylmethyl]-piperidin-4-ol], for which the inhibition at 0.01 µM worked out at 43.5%.

As for `NC(=O)OC1CCN(Cc2cc(-c3ccc(OCc4ccccc4)cc3)no2)CC1` [Example 138, Carbamic acid 1-[3-(4-benzyloxy-phenyl)-isoxazol-5-ylmethyl]-piperidin-4-yl ester], the inhibition at 0.01 µM came out at 39.1%.

Turning to `c1ccc(COc2ccc(-c3cc(Cn4ccnc4)on3)cc2)cc1` [Example 139, 3-(4-benzyloxy-phenyl)-5-imidazol-1-ylmethyl-isoxazole], the inhibition at 0.01 µM is 84.6%.

The values above are taken from US8828992B2, “Substituted azole derivatives, pharmaceutical composition containing the derivatives, and method for treating Parkinson's disease using the same” (priority 2009, dated 2014).
